Measurements: patent US12545640B2, “Substituted 6,7-dihydro-5H-benzo[7]annulene compounds, processes for their preparation and therapeutic uses thereof” (SANOFI, priority 2019, dated 2026)

Biological target: T1, ERα (Homo sapiens, UniProt P03372)
T1 construct: host or cells: MCF7 cells
T1 sequence (P03372 1-595): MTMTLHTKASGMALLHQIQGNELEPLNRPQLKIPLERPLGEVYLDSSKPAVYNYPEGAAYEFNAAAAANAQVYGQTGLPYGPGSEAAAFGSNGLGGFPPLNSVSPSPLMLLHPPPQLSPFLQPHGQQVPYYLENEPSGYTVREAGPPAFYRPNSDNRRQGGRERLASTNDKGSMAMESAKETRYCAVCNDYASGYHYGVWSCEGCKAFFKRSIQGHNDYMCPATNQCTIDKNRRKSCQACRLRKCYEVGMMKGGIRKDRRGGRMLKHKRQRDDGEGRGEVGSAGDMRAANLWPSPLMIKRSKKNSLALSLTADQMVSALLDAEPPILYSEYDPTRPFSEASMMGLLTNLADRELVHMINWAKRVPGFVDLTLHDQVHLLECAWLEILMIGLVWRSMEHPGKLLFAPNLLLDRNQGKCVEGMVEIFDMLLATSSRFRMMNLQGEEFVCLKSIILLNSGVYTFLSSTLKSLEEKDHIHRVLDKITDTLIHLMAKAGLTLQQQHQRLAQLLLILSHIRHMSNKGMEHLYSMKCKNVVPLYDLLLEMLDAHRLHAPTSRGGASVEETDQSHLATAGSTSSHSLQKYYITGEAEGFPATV
Experiment: Estrogen receptor degradation activity: breast cancer cell ERα in cell western assay (MCF7 cells)
Format: cell-based
Conditions: 4 hours, final concentrations ranging from 3-0.000018 μM, relative to fulvestrant 0.1 μM positive control
Description: Test: Estrogen Receptor Degradation Activity
Said test involves measuring the in vitro degradation activity of the compounds of the invention.
The measurements of the degradation activities were made using a breast cancer cell ERα in cell western assay as described hereunder.
MCF7 cells (ATCC) were seeded in 384 wells microplate (collagen coated) at a concentration of 10000 cells/30 μL, per well in red phenol free MEM alpha medium (invitrogen) containing 5% charcoal dextran striped FBS. The following day, 9 points serial 1:5 dilution of each compound was added to the cells in 2.5 μL at final concentrations ranging either from 3-0.000018 μM (column «% Degradation at 3 μM in table 2) or from 0.3-0.0000018 μM (column «% Degradation at 0.3 μM in table 2), or 0.1 μM for fulvestrant (using as positive control). At 4 hours post compound addition the cells were fixed by adding 25 μL of formalin (final concentration 5% formalin containing 0.1% triton) for 10 minutes at room temperature and then washed twice with PBS. Then, 50 μL of LI-COR blocking buffer containing 0.1% Triton was added to plate for 30 minutes at room temperature. LI-COR blocking buffer was removed and cells were incubated overnight at cold room with 50 μL anti-ER rabbit monoclonal antibody (Thermo scientific MA1-39540) diluted at 1:1000 in LI-COR blocking buffer containing 0.1% tween-20. Wells which were treated with blocking buffer but no antibody were used as background control. Wells were washed twice with PBS (0.1% tween-20) and incubated at 37° C. for 60 minutes in LI-COR (0.1% tween-20) containing goat anti-rabbit antibody Alexa 488 (1:1000) and Syto-64 a DNA dye ([…]). Cells were then washed 3 times in PBS and scanned in ACUMEN explorer (TTP-Labtech). Integrated intensities in the green fluorescence and red fluorescence were measured to determine the levels of ERα and DNA respectively.

% Degradation At 3 μM | SMILES
65% | COC(=O)Nc1ccc2c(c1)CCCC(c1ccc(Cl)cc1Cl)=C2c1ccc(O[C@H]2CCN(CCCF)C2)cc1 [Example 25, Methyl (S)-(8-(2,4-dichlorophenyl)-9-(4-((1-(3-fluoropropyl)pyrrolidin-3-yl)oxy)phenyl)-6,7-dihydro-5H-benzo[7]annulen-3-yl)carbamate]
90% | N=C(NO)c1ccc2c(c1)CCCC(c1ccc(Cl)cc1Cl)=C2c1ccc(O[C@H]2CCN(CCCF)C2)cc1 [Example 26, (S)-8-(2,4-dichlorophenyl)-9-(4-((1-(3-fluoropropyl)pyrrolidin-3-yl)oxy)phenyl)-N-hydroxy-6,7-dihydro-5H-benzo[7]annulene-3-carboximidamide]
71% | O=c1[nH]c(-c2ccc3c(c2)CCCC(c2ccc(Cl)cc2Cl)=C3c2ccc(O[C@H]3CCN(CCCF)C3)cc2)no1 [Example 27, (S)-3-(8-(2,4-dichlorophenyl)-9-(4-((1-(3-fluoropropyl)pyrrolidin-3-yl)oxy)phenyl)-6,7-dihydro-5H-benzo[7]annulen-3-yl)-1,2,4-oxadiazol-5(4H)-one]
91% | Cl.O=S1NC(c2ccc3c(c2)CCCC(c2ccc(Cl)cc2Cl)=C3c2ccc(O[C@H]3CCN(CCCF)C3)cc2)=NO1 (stereo partly drawn) [Example 29, 4-(8-(2,4-dichlorophenyl)-9-(4-(((S)-1-(3-fluoropropyl)pyrrolidin-3-yl)oxy)phenyl)-6,7-dihydro-5H-benzo[7]annulen-3-yl)-3H-1,2,3,5-oxathiadiazole 2-oxide hydrochloride]
70% | CS(=O)(=O)Nc1ccc2c(c1)CCCC(c1ccc(Cl)cc1Cl)=C2c1ccc(O[C@H]2CCN(CCCF)C2)cc1 [Example 30, (S)—N-(8-(2,4-dichlorophenyl)-9-(4-((1-(3-fluoropropyl)pyrrolidin-3-yl)oxy)phenyl)-6,7-dihydro-5H-benzo[7]annulen-3-yl)methane sulfonamide]
95% | O=c1[nH]nc(-c2ccc3c(c2)CCCC(c2ccc(Cl)cc2Cl)=C3c2ccc(O[C@H]3CCN(CCCF)C3)cc2)o1 [Example 31, (S)-5-(8-(2,4-dichlorophenyl)-9-(4-((1-(3-fluoropropyl)pyrrolidin-3-yl)oxy)phenyl)-6,7-dihydro-5H-benzo[7]annulen-3-yl)-1,3,4-oxadiazol-2(3H)-one]
73% | CC(C)(C)OC(=O)Nc1ccc2c(c1)CCCC(c1ccc(Cl)cc1Cl)=C2c1ccc(O[C@H]2CCN(CCCF)C2)cc1 [Example 32, Tert-butyl (S)-(8-(2,4-dichlorophenyl)-9-(4-((1-(3-fluoropropyl)pyrrolidin-3-yl)oxy)phenyl)-6,7-dihydro-5H-benzo[7]annulen-3-yl)carbamate]
95% | O=c1oc(-c2ccc3c(c2)CCCC(c2ccc(Cl)cc2Cl)=C3c2ccc(O[C@H]3CCN(CCCF)C3)cc2)ns1 [Example 33, (S)-5-(8-(2,4-dichlorophenyl)-9-(4-((1-(3-fluoropropyl)pyrrolidin-3-yl)oxy)phenyl)-6,7-dihydro-5H-benzo[7]annulen-3-yl)-1,3,4-oxathiazol-2-one]
66% | FCCCN1CC[C@H](Oc2ccc(C3=C(c4ccc(Cl)cc4Cl)CCCc4cc(-c5noc(=S)[nH]5)ccc43)cc2)C1 [Example 34, (S)-3-(8-(2,4-dichlorophenyl)-9-(4-((1-(3-fluoropropyl)pyrrolidin-3-yl)oxy)phenyl)-6,7-dihydro-5H-benzo[7]annulen-3-yl)-1,2,4-oxadiazole-5(4H)-thione]
52% | O=S(=O)(Nc1ccc2c(c1)CCCC(c1ccc(Cl)cc1Cl)=C2c1ccc(O[C@H]2CCN(CCCF)C2)cc1)C(F)(F)F [Example 35, (S)—N-(8-(2,4-dichlorophenyl)-9-(4-((1-(3-fluoropropyl)pyrrolidin-3-yl)oxy)phenyl)-6,7-dihydro-5H-benzo[7]annulen-3-yl)-1,1,1-trifluoromethanesulfonamide]
93% | O=c1c(O)c(Nc2ccc3c(c2)CCCC(c2ccc(Cl)cc2Cl)=C3c2ccc(O[C@H]3CCN(CCCF)C3)cc2)c1=O [Example 36, (S)-3-((8-(2,4-dichlorophenyl)-9-(4-((1-(3-fluoropropyl)pyrrolidin-3-yl)oxy)phenyl)-6,7-dihydro-5H-benzo[7]annulen-3-yl)amino)-4-hydroxycyclobut-3-ene-1,2-dione]
98% | O=c1[nH]c(-c2ccc3c(c2)CCCC(c2ccc(Cl)cc2Cl)=C3c2ccc(O[C@H]3CCN(CCCF)C3)cc2)ns1 [Example 37, (S)-3-(8-(2,4-dichlorophenyl)-9-(4-((1-(3-fluoropropyl)pyrrolidin-3-yl)oxy)phenyl)-6,7-dihydro-5H-benzo[7]annulen-3-yl)-1,2,4-thiadiazol-5(4H)-one]
66% | O=C1OCCN1c1ccc2c(c1)CCCC(c1ccc(Cl)cc1Cl)=C2c1ccc(O[C@H]2CCN(CCCF)C2)cc1 [Example 40, (S)-3-(8-(2,4-dichlorophenyl)-9-(4-((1-(3-fluoropropyl)pyrrolidin-3-yl)oxy)phenyl)-6,7-dihydro-5H-benzo[7]annulen-3-yl)oxazolidin-2-one]
74% | O=C1OCCN1c1ccc(C2=C(c3ccc(O[C@H]4CCN(CCCF)C4)cc3)c3ccc(N4CCOC4=O)cc3CCC2)c(Cl)c1 [Example 41, (S)-3-(8-(2-chloro-4-(2-oxooxazolidin-3-yl)phenyl)-9-(4-((1-(3-fluoropropyl)pyrrolidin-3-yl)oxy)phenyl)-6,7-dihydro-5H-benzo[7]annulen-3-yl)oxazolidin-2-one]
95% | O=C1NC(=O)C(c2ccc3c(c2)CCCC(c2ccc(Cl)cc2Cl)=C3c2ccc(O[C@H]3CCN(CCCF)C3)cc2)N1 (stereo partly drawn) [Example 43, 5-(8-(2,4-dichlorophenyl)-9-(4-(((S)-1-(3-fluoropropyl)pyrrolidin-3-yl)oxy)phenyl)-6,7-dihydro-5H-benzo[7]annulen-3-yl)imidazolidine-2,4-dione]
50% | CON(C)C(=O)c1ccc2c(c1)CCCC(c1ccc(Cl)cc1Cl)=C2c1ccc(O[C@H]2CCN(CCCF)C2)cc1 [Example 44, (S)-8-(2,4-dichlorophenyl)-9-(4-((1-(3-fluoropropyl)pyrrolidin-3-yl)oxy)phenyl)-N-methoxy-N-methyl-6,7-dihydro-5H-benzo[7]annulene-3-carboxamide]
96% | FCCCN1CC[C@H](Oc2ccc(C3=C(c4ccc(Cl)cc4Cl)CCCc4cc(-c5n[nH]c(=S)o5)ccc43)cc2)C1 [Example 45, (S)-5-(8-(2,4-dichlorophenyl)-9-(4-((1-(3-fluoropropyl)pyrrolidin-3-yl)oxy)phenyl)-6,7-dihydro-5H-benzo[7]annulen-3-yl)-1,3,4-oxadiazole-2(3H)-thione]
95% | CC(=N)Nc1ccc2c(c1)CCCC(c1ccc(Cl)cc1Cl)=C2c1ccc(O[C@H]2CCN(CCCF)C2)cc1 [Example 46, (S)—N-(8-(2,4-dichlorophenyl)-9-(4-((1-(3-fluoropropyl)pyrrolidin-3-yl)oxy)phenyl)-6,7-dihydro-5H-benzo[7]annulen-3-yl)acetimidamide]
78% | O=C(Nc1ccc2c(c1)CCCC(c1ccc(Cl)cc1Cl)=C2c1ccc(O[C@H]2CCN(CCCF)C2)cc1)C(F)(F)F [Example 47, (S)—N-(8-(2,4-dichlorophenyl)-9-(4-((1-(3-fluoropropyl)pyrrolidin-3-yl)oxy)phenyl)-6,7-dihydro-5H-benzo[7]annulen-3-yl)-2,2,2-trifluoroacetamide]
70% | CC(=O)Nc1ccc2c(c1)CCCC(c1ccc(Cl)cc1Cl)=C2c1ccc(O[C@H]2CCN(CCCF)C2)cc1 [Example 48, (S)—N-(8-(2,4-dichlorophenyl)-9-(4-((1-(3-fluoropropyl)pyrrolidin-3-yl)oxy)phenyl)-6,7-dihydro-5H-benzo[7]annulen-3-yl)acetamide]
81% | FCCCN1CC[C@H](Oc2ccc(C3=C(c4ccc(Cl)cc4Cl)CCCc4cc(-c5cc[nH]n5)ccc43)cc2)C1 [Example 51, (S)-3-(8-(2,4-dichlorophenyl)-9-(4-((1-(3-fluoropropyl)pyrrolidin-3-yl)oxy)phenyl)-6,7-dihydro-5H-benzo[7]annulen-3-yl)-1H-pyrazole]
